Assay results as given in PubChem BioAssay (NCI).
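Protocol summary: plate cells (96-well), add compound at 5 concentrations, incubate 48 h, interpolate endpoints linearly. The concentration for full growth arrest is given as TGI.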

Tests used:
Assay in all cases: DTP human tumour cell line panel, 48 h
ACHN renal = test system: ACHN renal
SR leukemia = test system: SR leukemia
SN12C renal = test system: SN12C renal
NCI-H226 lung = test system: NCI-H226 lung
SK-OV-3 ovarian = test system: SK-OV-3 ovarian
HCC-2998 colon = test system: HCC-2998 colon
DMS 273 small cell lung = test system: DMS 273 small cell lung
SF-295 CNS = test system: SF-295 CNS
TK-10 renal = test system: TK-10 renal
NCI-H460 lung = test system: NCI-H460 lung
UACC-62 melanoma = test system: UACC-62 melanoma
OVCAR-4 ovarian = test system: OVCAR-4 ovarian
EKVX NSCLC = test system: EKVX NSCLC
SF-539 CNS = test system: SF-539 CNS
M19-MEL melanoma = test system: M19-MEL melanoma
MALME-3M melanoma = test system: MALME-3M melanoma
SNB-19 CNS = test system: SNB-19 CNS
CCRF-CEM leukemia = test system: CCRF-CEM leukemia
SW-620 colon = test system: SW-620 colon
A549 NSCLC = test system: A549 NSCLC
XF 498 CNS = test system: XF 498 CNS
RXF 393 renal = test system: RXF 393 renal
HOP-62 NSCLC = test system: HOP-62 NSCLC
COLO 205 colon = test system: COLO 205 colon
SNB-75 CNS = test system: SNB-75 CNS
K-562 leukemia = test system: K-562 leukemia
KM20L2 colon = test system: KM20L2 colon
HT29 colon = test system: HT29 colon
SNB-78 CNS = test system: SNB-78 CNS
OVCAR-8 ovarian = test system: OVCAR-8 ovarian
MOLT-4 leukemia = test system: MOLT-4 leukemia
DLD-1 colon = test system: DLD-1 colon
IGROV1 ovarian = test system: IGROV1 ovarian
HCT-116 colon = test system: HCT-116 colon
LXFL 529 NSCLC = test system: LXFL 529 NSCLC
SK-MEL-28 melanoma = test system: SK-MEL-28 melanoma
786-0 renal = test system: 786-0 renal
LOX IMVI melanoma = test system: LOX IMVI melanoma
HL-60(TB) leukemia = test system: HL-60(TB) leukemia
OVCAR-3 ovarian = test system: OVCAR-3 ovarian
UACC-257 melanoma = test system: UACC-257 melanoma
UO-31 renal = test system: UO-31 renal
KM12 colon = test system: KM12 colon
NCI-H522 lung = test system: NCI-H522 lung
U251 CNS = test system: U251 CNS
SK-MEL-2 melanoma = test system: SK-MEL-2 melanoma
M14 melanoma = test system: M14 melanoma
SF-268 CNS = test system: SF-268 CNS
HCT-15 colon = test system: HCT-15 colon
SK-MEL-5 melanoma = test system: SK-MEL-5 melanoma
NCI-H23 lung = test system: NCI-H23 lung
CAKI-1 renal = test system: CAKI-1 renal
A498 renal = test system: A498 renal
DMS 114 small cell lung = test system: DMS 114 small cell lung
RPMI-8226 leukemia = test system: RPMI-8226 leukemia
OVCAR-5 ovarian = test system: OVCAR-5 ovarian
HOP-92 NSCLC = test system: HOP-92 NSCLC
HOP-18 NSCLC = test system: HOP-18 NSCLC

Cc1nc2c(n1CCC(C)C)C(=O)c1ccccc1C2=O
TGI (ACHN renal): > 100 µM
TGI (SR leukemia): 37.6 µM
TGI (SN12C renal): 64.3 µM
TGI (NCI-H226 lung): > 100 µM
TGI (SK-OV-3 ovarian): > 100 µM
TGI (HCC-2998 colon): > 100 µM
TGI (DMS 273 small cell lung): 29.4 µM
TGI (SF-295 CNS): 67.3 µM
TGI (TK-10 renal): > 100 µM
TGI (NCI-H460 lung): 21.1 µM
TGI (UACC-62 melanoma): 27 µM
TGI (OVCAR-4 ovarian): > 100 µM
TGI (EKVX NSCLC): 92 µM
TGI (SF-539 CNS): 25.4 µM
TGI (M19-MEL melanoma): 28.5 µM
TGI (MALME-3M melanoma): 55.3 µM
TGI (SNB-19 CNS): > 100 µM
TGI (CCRF-CEM leukemia): 53.9 µM
TGI (SW-620 colon): > 100 µM
TGI (A549 NSCLC): > 100 µM
TGI (XF 498 CNS): 36.4 µM
TGI (RXF 393 renal): 79.7 µM
TGI (HOP-62 NSCLC): 50.7 µM
TGI (COLO 205 colon): 30.8 µM
TGI (SNB-75 CNS): 63 µM
TGI (K-562 leukemia): 69.1 µM
TGI (KM20L2 colon): > 100 µM
TGI (HT29 colon): > 100 µM
TGI (SNB-78 CNS): > 100 µM
TGI (OVCAR-8 ovarian): > 100 µM
TGI (MOLT-4 leukemia): 76.2 µM
TGI (DLD-1 colon): > 100 µM
TGI (IGROV1 ovarian): 58.9 µM
TGI (HCT-116 colon): 22.6 µM
TGI (LXFL 529 NSCLC): > 100 µM
TGI (SK-MEL-28 melanoma): 38.8 µM
TGI (786-0 renal): > 100 µM
TGI (LOX IMVI melanoma): 30.9 µM
TGI (HL-60(TB) leukemia): 28.1 µM
TGI (OVCAR-3 ovarian): 71.4 µM
TGI (UACC-257 melanoma): 56.7 µM
TGI (UO-31 renal): 86.7 µM
TGI (KM12 colon): > 100 µM
TGI (NCI-H522 lung): 55.9 µM
TGI (U251 CNS): 60.4 µM
TGI (SK-MEL-2 melanoma): 34.6 µM
TGI (M14 melanoma): 38 µM
TGI (SF-268 CNS): 43.1 µM
TGI (HCT-15 colon): > 100 µM
TGI (SK-MEL-5 melanoma): 28.4 µM
TGI (NCI-H23 lung): 44.9 µM

C[N+](C)(C)Cc1c(CC#N)[nH]c2ccccc12
TGI (ACHN renal): > 100 µM
TGI (SR leukemia): > 100 µM
TGI (SN12C renal): > 100 µM
TGI (NCI-H226 lung): > 100 µM
TGI (HCC-2998 colon): > 100 µM
TGI (DMS 273 small cell lung): > 100 µM
TGI (SF-295 CNS): > 100 µM
TGI (TK-10 renal): > 100 µM
TGI (NCI-H460 lung): > 100 µM
TGI (UACC-62 melanoma): > 100 µM
TGI (OVCAR-4 ovarian): > 100 µM
TGI (EKVX NSCLC): > 100 µM
TGI (SF-539 CNS): > 100 µM
TGI (M19-MEL melanoma): > 100 µM
TGI (CAKI-1 renal): > 100 µM
TGI (MALME-3M melanoma): > 100 µM
TGI (SNB-19 CNS): > 100 µM
TGI (CCRF-CEM leukemia): > 100 µM
TGI (SW-620 colon): > 100 µM
TGI (A549 NSCLC): > 100 µM
TGI (XF 498 CNS): > 100 µM
TGI (RXF 393 renal): > 100 µM
TGI (HOP-62 NSCLC): > 100 µM
TGI (COLO 205 colon): > 100 µM
TGI (SNB-75 CNS): > 100 µM
TGI (K-562 leukemia): > 100 µM
TGI (A498 renal): > 100 µM
TGI (KM20L2 colon): > 100 µM
TGI (HT29 colon): > 100 µM
TGI (OVCAR-8 ovarian): > 100 µM
TGI (MOLT-4 leukemia): > 100 µM
TGI (DLD-1 colon): > 100 µM
TGI (IGROV1 ovarian): > 100 µM
TGI (HCT-116 colon): > 100 µM
TGI (LXFL 529 NSCLC): > 100 µM
TGI (SK-MEL-28 melanoma): > 100 µM
TGI (786-0 renal): > 100 µM
TGI (DMS 114 small cell lung): > 100 µM
TGI (LOX IMVI melanoma): > 100 µM
TGI (HL-60(TB) leukemia): > 100 µM
TGI (OVCAR-3 ovarian): > 100 µM
TGI (UACC-257 melanoma): > 100 µM
TGI (UO-31 renal): > 100 µM
TGI (KM12 colon): > 100 µM
TGI (RPMI-8226 leukemia): > 100 µM
TGI (NCI-H522 lung): > 100 µM
TGI (U251 CNS): > 100 µM
TGI (SK-MEL-2 melanoma): > 100 µM
TGI (M14 melanoma): > 100 µM
TGI (SF-268 CNS): > 100 µM
TGI (HCT-15 colon): > 100 µM
TGI (SK-MEL-5 melanoma): > 100 µM
TGI (NCI-H23 lung): > 100 µM
TGI (OVCAR-5 ovarian): > 100 µM

CCN(CC)CCC(=O)c1ccccc1
TGI (ACHN renal): 29.7 µM
TGI (SR leukemia): 35.3 µM
TGI (SN12C renal): 35.2 µM
TGI (HOP-92 NSCLC): 28.5 µM
TGI (NCI-H226 lung): > 100 µM
TGI (HCC-2998 colon): > 100 µM
TGI (DMS 273 small cell lung): 33.5 µM
TGI (TK-10 renal): 43.4 µM
TGI (NCI-H460 lung): 97.8 µM
TGI (OVCAR-4 ovarian): 40.5 µM
TGI (EKVX NSCLC): > 100 µM
TGI (SF-539 CNS): 44.2 µM
TGI (M19-MEL melanoma): 56.1 µM
TGI (SNB-19 CNS): > 100 µM
TGI (CCRF-CEM leukemia): 36.9 µM
TGI (SW-620 colon): 41.1 µM
TGI (A549 NSCLC): > 100 µM
TGI (RXF 393 renal): 34.7 µM
TGI (HOP-62 NSCLC): > 100 µM
TGI (SNB-75 CNS): 38.8 µM
TGI (KM20L2 colon): 49.5 µM
TGI (HT29 colon): 70.2 µM
TGI (OVCAR-8 ovarian): 58 µM
TGI (MOLT-4 leukemia): 42.2 µM
TGI (IGROV1 ovarian): > 100 µM
TGI (HCT-116 colon): 31.8 µM
TGI (LXFL 529 NSCLC): 32.1 µM
TGI (SK-MEL-28 melanoma): 33 µM
TGI (DMS 114 small cell lung): 41.8 µM
TGI (LOX IMVI melanoma): 36 µM
TGI (HL-60(TB) leukemia): 43.9 µM
TGI (OVCAR-3 ovarian): 38.8 µM
TGI (UACC-257 melanoma): 61.4 µM
TGI (UO-31 renal): 93 µM
TGI (KM12 colon): > 100 µM
TGI (HOP-18 NSCLC): 30.1 µM
TGI (RPMI-8226 leukemia): 15.6 µM
TGI (U251 CNS): 47.4 µM
TGI (SK-MEL-2 melanoma): > 100 µM
TGI (M14 melanoma): 31.5 µM
TGI (SF-268 CNS): 40.5 µM
TGI (HCT-15 colon): 38.5 µM
TGI (SK-MEL-5 melanoma): > 100 µM
TGI (NCI-H23 lung): 45.6 µM
TGI (OVCAR-5 ovarian): 40.9 µM

COC(=O)c1c(C)cc2c(c1O)C1(O)C(=O)c3cc4c(c(O)c3C(=O)C1(OC)C(O)C2)C(=O)C=C(NC1OC(C)C(OC)C(O)C1OC)C4=O (centres undefined)
TGI (ACHN renal): 0.205 µM
TGI (SN12C renal): 0.243 µM
TGI (HOP-92 NSCLC): 0.443 µM
TGI (NCI-H226 lung): 0.416 µM
TGI (SK-OV-3 ovarian): 1.58 µM
TGI (HCC-2998 colon): 0.28 µM
TGI (DMS 273 small cell lung): 0.468 µM
TGI (SF-295 CNS): 0.146 µM
TGI (TK-10 renal): 0.293 µM
TGI (NCI-H460 lung): 0.435 µM
TGI (UACC-62 melanoma): 0.0502 µM
TGI (OVCAR-4 ovarian): 0.213 µM
TGI (EKVX NSCLC): 0.864 µM
TGI (SF-539 CNS): 0.2 µM
TGI (M19-MEL melanoma): 0.0516 µM
TGI (CAKI-1 renal): 0.806 µM
TGI (MALME-3M melanoma): 0.249 µM
TGI (SNB-19 CNS): 1.22 µM
TGI (CCRF-CEM leukemia): 0.166 µM
TGI (SW-620 colon): 0.164 µM
TGI (A549 NSCLC): 1.03 µM
TGI (XF 498 CNS): 0.235 µM
TGI (RXF 393 renal): 0.0525 µM
TGI (HOP-62 NSCLC): 1.26 µM
TGI (COLO 205 colon): 0.186 µM
TGI (SNB-75 CNS): 0.277 µM
TGI (K-562 leukemia): 0.178 µM
TGI (A498 renal): 0.71 µM
TGI (KM20L2 colon): 0.395 µM
TGI (HT29 colon): 0.222 µM
TGI (SNB-78 CNS): 0.324 µM
TGI (OVCAR-8 ovarian): 0.14 µM
TGI (MOLT-4 leukemia): 0.13 µM
TGI (DLD-1 colon): 0.12 µM
TGI (IGROV1 ovarian): 0.0635 µM
TGI (HCT-116 colon): 0.177 µM
TGI (LXFL 529 NSCLC): 0.205 µM
TGI (786-0 renal): 0.202 µM
TGI (DMS 114 small cell lung): 0.0295 µM
TGI (LOX IMVI melanoma): 0.0866 µM
TGI (HL-60(TB) leukemia): 0.184 µM
TGI (OVCAR-3 ovarian): 0.558 µM
TGI (UACC-257 melanoma): 0.0357 µM
TGI (UO-31 renal): 0.427 µM
TGI (KM12 colon): 0.562 µM
TGI (RPMI-8226 leukemia): 0.303 µM
TGI (NCI-H522 lung): 0.257 µM
TGI (U251 CNS): 0.663 µM
TGI (SK-MEL-2 melanoma): 0.149 µM
TGI (M14 melanoma): 0.262 µM
TGI (SF-268 CNS): 0.648 µM
TGI (HCT-15 colon): 0.443 µM
TGI (NCI-H23 lung): 0.0368 µM
TGI (OVCAR-5 ovarian): 0.401 µM
